The source of these data is PMC8842605, “Novel Derivatives of diphenyl-1,3,4-oxadiazol as Ligands of Benzodiazepine Receptors; Synthesize, Binding Assay and Pharmacological Evaluation” (Iranian Journal of Pharmaceutical Research : IJPR, 2021).

One data set has as its target benzodiazepine receptor. Description: Radioligand competition binding with [3H]-flumazenil. Conditions: rat brain membrane; for IC50: 35 min at 30 °C, read-out: IC50 (95% CI); for Ki: Cheng-Prussof equation. How it is done: Temporarily, the brain tissue of Male Sprague-Dawley rats (200-250 g weight) were used as the source of the benzodiazepine receptors. These tissues were collected, homogenized in 20 mL of ice‐cold Tris‐HCl buffer and centrifuged at 600 g for 10 min. in the next step, the supernatant was centrifuged 37000xg for 15 min at 4 °C. […] The Bradford method using bovine serum albumin as a standard, was applied for quantification of protein in the separated membrane. Saturation and competition experiments are two basic methods of receptor binding studies. […] NSB was determined in parallel assays performed in the presence of 100 μM diazepam. Competition experiments were used to measure the percentage inhibition of radioligand specific binding (IC50) and affinity (Ki) of the novel synthesized ligands and diazepam, using the Cheng-Prussof equation.
(In a radioligand displacement assay an active substance lowers the binding of a labelled ligand.)

Data set [1] has as its system mice. Description: Open field test. In kind it is in vivo. Conditions: Mus musculus, ip, intraperitoneal, 30 min before test, total distance movement, read-out: ED50 (95% CI), Open field test. How it is done: To the assessment of the sedative effects and locomotor activities of the novel synthesized compounds, the open field test was performed. […] The total distance movement was recorded for 10 min by a digital camera and then was calculated by an automated tracking system (Ethovision XT software, Noldus, The Netherlands) ([24]).

Data set [2] has as its system mice. The experiment in a line: Elevated plus maze test. In kind it is in vivo. The conditions noted are these: Mus musculus, percentage of time spent in open arms, read-out: ED50 (95% CI), Elevated plus maze test. How it is done: To assay the anti-anxiety effects of novel synthesized compounds, the elevated plus-maze test was used. The apparatus of the elevated plus-maze test is prepared of two open arms (30 × 5 × 0.5 cm) and two close arms (30 × 5 × 35 cm) with an open roof and was set at a height of 50 cm above the floor.

For data set [3], the system named is mice. The experiment in a line: Grip strength test. The data set is classed as in vivo. Conditions: Mus musculus, 0.5 h, read-out: ED50 (95% CI), Grip strength test. How it is done:
To assessment the muscle relaxant effects of novel synthesized compounds by measuring the maximum force applied to the digital force meter, the grip strength test was prepared. This assessment was guided using the modified method explained by Bachstetter et al. (2014). The test was repeated 3 times for each mouse, 30 min after injection of the novel compounds ([29]).

Data set [4] deals with maximal electro shock-induced seizure. The experiment in a line: Maximal electro shock (MES) test. The data set is classed as in vivo. Conditions: Mus musculus, 0.5 h; mice, 30 min after administration; 60 Hz, 50 mA, 0.2 s; HLTE; read-out: ED50 (95% CI), MES test. The text has this:
(§1) Two useful seizure models (MES and PTZ) were organized for evaluation of the anticonvulsant activities of novel synthesized compounds. In these experiments, the capability of novel synthesized compounds to prevent the maximal electro shock-induced seizure and pentylenetetrazol-induced seizure were screened. MES test (60 Hz, 50 mA, 0.2 s) was done according to the method described by Toolabi et al. (2020). PTZ test was done Using the mothed described by Ranjbar-ekbatan et al. (2019). These experiments were applied 30 min after administration of the novel compounds. The number of HLTE (hind limb tonic extension) in the MES test and the number of dead animals in the PTZ test were counted ([30]–[32]).

In data set [5] the test system is pentylenetetrazol-induced seizure. Description: Pentylenetetrazol (PTZ) test. The data set is classed as in vivo. The conditions noted are these: Mus musculus, 0.5 h; mice, 30 min after administration; number of dead animals; read-out: ED50 (95% CI), PTZ test.
Excerpt: as §1

Data set [6] deals with mice. The experiment in a line: Pentobarbital induced sleep test. The conditions noted are these: Mus musculus, read-out: ED50 (95% CI), Pentobarbital induced Sleeping test.
Data set [7] has as its system mice. Description: Rotarod test. The data set is classed as in vivo. The conditions noted are these: 30 min after injection, 6 rpm, 1 min, Diazepam 2 mg/kg. How it is done: For evaluation of the motor coordination and balance capability, the rotarod test was used. Concisely, 30 min after injection of the novel compounds and Diazepam (2 mg/kg), each animal was located on a rotating rod (6 rpm, 1 min). In this experiment, the average time latency to fall for each animal was noted ([33]).
For orientation: Falling from the rotarod earlier than controls is read as motor impairment.

The subject of data set [8] is mice. The experiment in a line: Passive avoidance test. The data set is classed as in vivo. The conditions noted are these: Diazepam 2 mg/kg. The text has this:
To determine the effects of novel synthesized compounds on learning and memory disorder, the passive avoidance test was done. The passive avoidance apparatus consists of two compartments, that one of them is brightly lit (white compartment) and another one is dimly lit (black compartment). A sliding door divides these two compartments. […] After arriving in the black compartment, it was received a mild unpleasant electrical stimulation (0.5 mA for 2 s) through the grid floor. During the test phase, the animal was relocated in the white compartment. However, there was no electric stimulation in the dark compartment. The latency to enter the dark compartment was recounted ([34],[35]).

The mark [9] stands for this setting: mice, 30 min after injection, maximum force.

For orientation: IC50 means the concentration needed to halve the response being measured. Broadly, the Ki is a dissociation constant, usually derived from enzyme kinetics or from competition with a known ligand. Low values mean higher affinity, high ones lower affinity. As a reminder, the ED50 is the dose at which the effect has come halfway, by size or by number of responders. A word on the melting point: it is the temperature of the solid-liquid transition. For the compound `O=C(Nc1ccccc1-c1nnc(-c2ccccc2)o1)c1ccccc1` [Compound 7a, N-(2-(5-phenyl-1,3,4-oxadiazol-2-yl)phenyl)benzamide], the melting point fell in the range of 188 to 189 °C. In addition, at benzodiazepine receptor, the IC50 stood at 10.2 nM and the Ki came to 5.95 nM. Besides, the ED50 in the data set on mice [1] was found to be 27.7 mg/kg. In addition, the ED50 with mice [2] was found to be 15.3 mg/kg. Further, the ED50 with mice [3] (setting [9]) was 34.9 mg/kg. Besides, the ED50 in data set [4] was 235 mg/kg. For the same compound, the ED50 in data set [5] is 276 mg/kg. Also, in the data set with mice [6], the ED50 amounted to 22.7 mg/kg.
As for `O=C(Nc1ccccc1-c1nnc(-c2ccccc2)o1)c1ccc(Cl)cc1` [Compound 7b, 4-chloro-N-(2-(5-phenyl-1,3,4-oxadiazol-2-yl)phenyl)benzamide], the melting point is 195 to 197 °C. On benzodiazepine receptor, the IC50 worked out at 7.62 nM and the Ki is 4.43 nM. In addition, in the data set with mice [1], the ED50 amounted to 21.3 mg/kg. The ED50 in the data set with mice [2] stood at 11.8 mg/kg. The ED50 in the data set on mice [3] (setting [9]) amounted to 31.5 mg/kg. Also, the ED50 in [4] was 163 mg/kg. Also, in data set [5], the ED50 was 180 mg/kg. Moreover, the 50% effective dose (ED50) in the data set on mice [6] turned out to be 19.4 mg/kg.
In the case of `O=C(Nc1ccccc1-c1nnc(-c2ccccc2)o1)c1ccc(F)cc1` [Compound 7c, 4-fluoro-N-(2-(5-phenyl-1,3,4-oxadiazol-2-yl)phenyl)benzamide], the melting point fell in the range of 189 to 190 °C. On benzodiazepine receptor, the IC50 was determined as 6.05 nM and the Ki came to 3.51 nM. In addition, the ED50 in the data set on mice [1] was 19.7 mg/kg. The ED50 with mice [2] came out at 13.7 mg/kg. Besides, the ED50 in the data set on mice [3] (setting [9]) was 30.9 mg/kg. Besides, the ED50 in data set [4] turned out to be 105 mg/kg. The ED50 in data set [5] turned out to be 118 mg/kg. In addition, the ED50 in the data set on mice [6] came out at 17.1 mg/kg.
With `Cc1ccc(C(=O)Nc2ccccc2-c2nnc(-c3ccccc3)o2)cc1` [Compound 7d, 4-methyl-N-(2-(5-phenyl-1,3,4-oxadiazol-2-yl)phenyl)benzamide], the melting point is 200 to 202 °C. Besides, at benzodiazepine receptor, the IC50 came to 4.26 nM and the Ki was 2.47 nM. Moreover, the ED50 in the data set on mice [1] stood at 18.8 mg/kg. Further, the ED50 in the data set on mice [2] was 12.6 mg/kg. For the same compound, the ED50 in the data set with mice [3] (setting [9]) came out at 29.4 mg/kg. The ED50 in [4] was determined as 92.5 mg/kg. Moreover, the ED50 in data set [5] amounted to 109 mg/kg. Moreover, in the data set with mice [6], the ED50 is 13.1 mg/kg.
In turn, `O=C(Nc1ccccc1-c1nnc(-c2ccccc2)o1)c1ccc([N+](=O)[O-])cc1` [Compound 7e, 4-nitro-N-(2-(5-phenyl-1,3,4-oxadiazol-2-yl)phenyl)benzamide] showed a melting point of 195 to 197 °C. Also, at benzodiazepine receptor, the IC50 stood at 9.16 nM and affinity was put at a Ki of 5.32 nM. Besides, in the data set with mice [1], the ED50 came out at 19.1 mg/kg. In addition, the ED50 in the data set on mice [2] was found to be 9.96 mg/kg. The ED50 in the data set with mice [3] (setting [9]) turned out to be 25.7 mg/kg. Further, the ED50 in [4] stood at 24.2 mg/kg. The ED50 in data set [5] was found to be 45.2 mg/kg. Also, in the data set with mice [6], the ED50 came to 19.6 mg/kg.
The compound `COc1ccc(C(=O)Nc2ccccc2-c2nnc(-c3ccccc3)o2)cc1` [Compound 7f, 4-methoxy-N-(2-(5-phenyl-1,3,4-oxadiazol-2-yl)phenyl)benzamide] showed a melting point of 216 to 217 °C. Moreover, at benzodiazepine receptor, the IC50 turned out to be 3.03 nM and the affinity, expressed as Ki, was 1.76 nM. In addition, the ED50 with mice [1] stood at 14.5 mg/kg. For the same compound, the ED50 with mice [2] was 12.7 mg/kg. Further, the ED50 with mice [3] (setting [9]) turned out to be 26.7 mg/kg. In addition, the ED50 in data set [4] was 136 mg/kg. Also, the ED50 in data set [5] is 136 mg/kg. The ED50 in the data set with mice [6] was 9.91 mg/kg.
As for `CC(=O)Nc1ccccc1-c1nnc(-c2ccccc2)o1` [Compound 7g, N-(2-(5-phenyl-1,3,4-oxadiazol-2-yl)phenyl)acetamide], the melting point lay within 155 to 157 °C. At benzodiazepine receptor, the IC50 came to 2.78 nM and affinity was put at a Ki of 1.61 nM. Besides, the ED50 with mice [1] stood at 14 mg/kg. Further, the ED50 in the data set on mice [2] was found to be 12.8 mg/kg. Also, the ED50 in the data set on mice [3] (setting [9]) came to 28.8 mg/kg. Besides, the ED50 in data set [4] was determined as 186 mg/kg. The ED50 in data set [5] is 147 mg/kg. Also, the ED50 in the data set with mice [6] is 9.45 mg/kg.
Take `CCC(=O)Nc1ccccc1-c1nnc(-c2ccccc2)o1` [Compound 7h, N-(2-(5-phenyl-1,3,4-oxadiazol-2-yl)phenyl) propionamide]: the melting point was in the range of 163 to 165 °C. For the same compound, at benzodiazepine receptor, the IC50 was found to be 2.57 nM and the Ki was found to be 1.49 nM. In addition, in the data set with mice [1], the ED50 came to 10.1 mg/kg. The ED50 with mice [2] turned out to be 11.8 mg/kg. Also, the ED50 in the data set with mice [3] (setting [9]) worked out at 24.6 mg/kg. In addition, the ED50 in data set [4] amounted to 118 mg/kg. Further, the ED50 in data set [5] is 136 mg/kg. Besides, in the data set on mice [6], the ED50 came to 5.28 mg/kg.
Regarding `O=C(O)c1ccccc1C(=O)Nc1ccccc1-c1nnc(-c2ccccc2)o1` [Compound 7i, 2-((2-(5-phenyl-1,3,4-oxadiazol-2-yl)phenyl)carbamoyl)benzoic acid], the melting point fell in the range of 196 to 198 °C. Moreover, the IC50 at benzodiazepine receptor worked out at 1.54 nM. Also, the ED50 in the data set with mice [1] was found to be 7.14 mg/kg. In the data set on mice [2], the ED50 came out at 8.71 mg/kg. Also, the ED50 in the data set with mice [3] (setting [9]) turned out to be 13.2 mg/kg. Besides, in [4], the ED50 turned out to be 26.7 mg/kg. Besides, in [5], the ED50 is 45.1 mg/kg. Further, in the data set with mice [6], the ED50 stood at 4.64 mg/kg.
`O=C(O)CCC(=O)Nc1ccccc1-c1nnc(-c2ccccc2)o1` [Compound 7j, 4-oxo-4-((2-(5-phenyl-1,3,4-oxadiazol-2-yl)phenyl)amino)butanoic acid]: the melting point was in the range of 159 to 160 °C. At benzodiazepine receptor, the IC50 was 1.66 nM and the affinity corresponds to a Ki of 0.96 nM. Also, the ED50 with mice [1] was 8.9 mg/kg. Besides, the ED50 in the data set with mice [2] was 9.77 mg/kg. Further, in the data set with mice [3] (setting [9]), the ED50 stood at 17.1 mg/kg. Moreover, the ED50 in [4] amounted to 40.8 mg/kg. Further, the ED50 in data set [5] was 60.9 mg/kg. Further, the ED50 in the data set with mice [6] is 4.98 mg/kg.
Consider `CN1C(=O)CN=C(c2ccccc2)c2cc(Cl)ccc21` [Diazepam, reference compound], for which the IC50 at benzodiazepine receptor amounted to 1.71 nM. The compound further gave a Ki on benzodiazepine receptor of 0.99 nM. For the same compound, the ED50 was 1.69 mg/kg in the data set on mice [1]; 2.24 mg/kg with mice [2]; 2.27 mg/kg in the data set on mice [3]; 1.32 mg/kg in data set [4]; 1.01 mg/kg in data set [5]; 1.98 mg/kg in the data set on mice [6]. Further, the “latency to fall in rotarod test vs control” value in the data set on mice [7] is “significant decrease in latency to fall”. In the data set with mice [8], the “latency to enter the dark compartment in passive avoidance test vs control” value is “significant reduction in latency to enter the dark compartment”.
